Measured values from patent publication US11365194B2, “Analgesic drug using PAC1 receptor antagonistic drug” (KAGOSHIMA UNIVERSITY, priority 2017, dated 2022).

How the values were obtained:
[1] = test system: mechanical allodynia induced by PACAP intrathecal administration; assay: Mechanical allodynia induced by PACAP intrathecal administration (von Frey test); assay type: in vivo, mouse; details: simultaneous i.t.
Protocol: When single i.t. administration of PACAP (100 pmol/5 L) to mouse was performed, mechanical stimulus sensitive phenomenon (mechanical allodynia) occurred over a long period of time (for at least three months after the administration) (Non Patent Literature 1). […] The mechanical sensitive phenomenon induced by PACAP was not suppressed in an example in which a solvent (VEH: 0.2% DMSO-containing artificial cerebrospinal fluid) was used instead of the compounds.
(§1) Male ddY mice (6 to 12 weeks old) were used, and the threshold to a mechanical stimulus was evaluated by the vonFrey test. Specifically, the 50% withdrawal reflex threshold (Threshold) was calculated in accordance with the method of Chaplan et al. (Chaplan et al., J. Neurosci. Meth. 53, 55-63, 1994). Each compound was dissolved in 99.7% DMSO, and then the resulting solution was diluted with an artificial cerebrospinal fluid for preparation (final concentration of DMSO was 0.2%).

[2] = test system: cold allodynia induced by oxaliplatin; assay: Onset of cold allodynia induced by oxaliplatin, drug given around oxaliplatin administration; assay type: in vivo, mouse; details: 10 mg/kg oral
Protocol: Oxaliplatin was dissolved in 5% glucose-containing saline and intraperitoneally administered at a dose of 2 mg/kg. Drug administration (oral administration) was performed 30 minutes before oxaliplatin administration (FIG. 7A); or 3 times: 30 minutes before oxaliplatin administration, 2.5 hours after the administration, and 5.5 hours after the administration (FIG. 7B). Male ddY mice (6 to 12 weeks old) were used. The axis of ordinates is the duration of the behavior of licking and paw waving after the application of an acetone drop (10 μL) to the footpad of a hind paw.

[3] = test system: pain-like behavior induced by formalin; assay: Pain-like behavior induced by formalin; assay type: in vivo, mouse; details: 0.1 to 10 nmol i.t.
Protocol: The first phase is direct action of formalin on sensory nerves (to around 10 minutes after formalin administration). In the second phase (from around 10 minutes to 60 minutes after formalin administration), hypersensitization formed in spinal dorsal horn cells during the first phase (a type of plastic phenomenon in the nervous system also called central sensitization) is a main cause, and inflammatory reaction at the site of formalin administration contributes importantly.

[4] = test system: mechanical allodynia induced by spinal nerve injury; assay: Spinal nerve ligation (SNL) model, i.t. administration on 14th day, mechanical allodynia; assay type: in vivo, mouse; details: for anti-mechanical allodynia effect: 100 pmol i.t. on 14th day after operation
Protocol: as §1
Spinal nerve ligation (SNL) models in which the fourth lumbar cord spinal nerves of male ddY (6 to 12 weeks old) were ligated with silk thread were used. The i.t. administration of a solvent (VEH: 10% DMSO-containing saline), PA-8, the compound 2j or the compound 2o (FIG. 9A), or PA-9 or the compound 3d (FIG. 9B) was performed on the 14th day after the operation. The method of causing a mechanical stimulus is the same as that of Example 5, and data were acquired for 24 hours after i.t. administration over time.

[5] = test system: cold allodynia induced by oxaliplatin; assay: Cold allodynia induced by oxaliplatin, drug on fourth day after oxaliplatin (acetone test); assay type: in vivo, mouse; details: 10 mg/kg, single oral administration; for suppression of cold allodynia by oxaliplatin: fourth day after oxaliplatin
Protocol: Oxaliplatin was dissolved in 5% glucose-containing saline and intraperitoneally administered at a dose of 2 mg/kg. A drug was administered on the fourth day after oxaliplatin administration. Male ddY mice (6 to 12 weeks old) were used. The axis of ordinates is the duration of the behavior of licking and paw waving after the application of an acetone drop (10 L) to the footpad of a hind paw.

[6] = test system: spontaneous pain-like behavior induced by PACAP intrathecal administration; assay: Spontaneous pain-like behavior induced by PACAP intrathecal administration; assay type: in vivo, mouse; details: for suppression of PACAP-induced spontaneous pain-like behavior: simultaneous i.t. with PACAP (100 pmol), counted for 30 minutes
Protocol: When PACAP (100 pmol/5 L) is intrathecally administered to a mouse in a single dose (single i.t. injection), spontaneous pain-like behavior in which the mouse licks or bites the rear half of the body occurs about 5 minutes after the administration (and continues for several hours) (Ohnou et al. J. Pharmacol. Sci. 130, 194-203, 2016). […] Male ddY mice (6 to 12 weeks old) were used, and the behaviors were taken on video. The number of times of spontaneous pain-like behaviors for 30 minutes after the administration was counted.

[7] = target: T1, mouse PAC receptor-expressing CHO cell (PAC1/CHO cell) (Mus musculus, UniProt P70205); assay: CREB phosphorylation by PACAP stimulus, Western blot, PAC1/CHO cell; assay type: cell-based; details: for suppression of CREB phosphorylation by PACAP (1 nM): PAC1/CHO cell, compound 10 μM to 10 nM, 30 minutes before 1 nM PACAP; for effect of suppressing CREB phosphorylation compared with basic compound: at 1 nM, 2o versus PA-8, 3d versus PA-9, FIG. 3
T1 construct: expressed in transfected cells; host or cells: CHO cells
T1 sequence (P70205 21-496): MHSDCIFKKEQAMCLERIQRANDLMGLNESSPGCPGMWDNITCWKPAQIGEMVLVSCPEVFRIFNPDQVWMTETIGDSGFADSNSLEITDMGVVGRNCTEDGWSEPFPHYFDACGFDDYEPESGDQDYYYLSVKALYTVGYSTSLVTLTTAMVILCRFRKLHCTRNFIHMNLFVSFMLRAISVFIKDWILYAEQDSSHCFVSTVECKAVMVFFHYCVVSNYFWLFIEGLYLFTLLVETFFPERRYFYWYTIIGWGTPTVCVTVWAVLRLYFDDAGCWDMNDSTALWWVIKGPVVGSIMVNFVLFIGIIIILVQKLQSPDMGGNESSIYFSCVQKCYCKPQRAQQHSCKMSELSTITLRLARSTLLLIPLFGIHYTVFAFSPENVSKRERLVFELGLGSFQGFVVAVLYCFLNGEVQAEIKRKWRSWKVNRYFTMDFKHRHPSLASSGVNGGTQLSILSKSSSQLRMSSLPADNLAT
Protocol: The effect of each compound on the phosphorylation of CREB (cAMP-responsive element-binding protein) produced by a PACAP stimulus was examined by Western blot analysis using an anti-phosphorylated CREB (pCREB) antibody with a mouse PAC receptor-expressing CHO cell (PAC1/CHO cell) and a mouse VPAC1 receptor-expressing CHO cell (VPAC1/CHO cell).
Specifically, treatment with a compound (PA-8, PA-9, compounds 2j, 20 and 3d) at 10 μM to 10 nM or a solvent therefor (VEH: 0.1% DMSO-containing phosphate buffer solution) was performed for 30 minutes, 1 nM PACAP was then added, and protein was recovered within 30 minutes after a PACAP stimulus.

[8] = test system: mechanical allodynia induced by spinal nerve injury; assay: Spinal nerve ligation (SNL) model, repeated intraperitoneal administration, mechanical allodynia; assay type: in vivo, mouse; details: for suppression of the onset of mechanical allodynia: 30 mg/kg i.p. before ligation and once a day for 7 days
Protocol: as §1
Spinal nerve ligation (SNL) models in which the fourth lumbar cord spinal nerves of male ddY (6 to 12 weeks old) were ligated with silk thread were used. A solvent (VEH: 10% DMSO-containing saline). PA-8, the compound 2j or the compound 20 was intraperitoneally administered (30 mg/kg) 5 to 10 minutes before the ligation, and once a day for 7 days thereafter. The method of causing a mechanical stimulus is the same as that of Example 5, and data from the first day after the ligation (D1) are data 1 hour after the administration of VEH or the drugs.

[9] = Non Patent Literature 4; cited from earlier work
[10] = target: T2, PAC1 receptor (Homo sapiens, UniProt P41586); details: Non Patent Literature 3; cited from earlier work
T2 sequence (P41586 21-468): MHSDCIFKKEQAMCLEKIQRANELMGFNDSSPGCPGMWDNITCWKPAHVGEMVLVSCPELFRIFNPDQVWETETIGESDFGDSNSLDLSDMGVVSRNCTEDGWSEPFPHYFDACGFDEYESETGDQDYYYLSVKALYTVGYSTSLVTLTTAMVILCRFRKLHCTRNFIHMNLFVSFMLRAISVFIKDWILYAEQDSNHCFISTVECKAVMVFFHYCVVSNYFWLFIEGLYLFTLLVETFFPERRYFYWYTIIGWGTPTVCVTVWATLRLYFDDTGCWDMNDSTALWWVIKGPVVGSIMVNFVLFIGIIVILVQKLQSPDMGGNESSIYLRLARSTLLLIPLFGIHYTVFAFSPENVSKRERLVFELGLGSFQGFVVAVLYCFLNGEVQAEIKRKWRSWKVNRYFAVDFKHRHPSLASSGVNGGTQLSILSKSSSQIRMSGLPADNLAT

[11] = 30 minutes before oxaliplatin or 3 administrations

SMILES	suppression of long-term mechanical allodynia induced by PACAP ([1]; 10 or 100 pmol, FIGS. 5A and B)	suppression of the onset of cold allodynia by oxaliplatin [2, 11]	effect on first phase reaction [3]	effect on second phase reaction [3]	anti-mechanical allodynia effect [4]	suppression of cold allodynia by oxaliplatin [5]	suppression of PACAP-induced spontaneous pain-like behavior ([6]; 10 pmol)	suppression of PACAP-induced spontaneous pain-like behavior ([6]; 100 pmol)	suppression of CREB phosphorylation by PACAP (1 nM) [7]	effect of suppressing CREB phosphorylation compared with basic compound [7]	suppression of the onset of mechanical allodynia [8]	suppression of long-term mechanical allodynia induced by PACAP ([1]; 100 pmol, FIG. 5C)	mechanical threshold 24 hours after the administration ([4]; 100 pmol i.t.)	further results
Nc1nc2c(c(=O)[nH]1)C(c1cccc(OC(F)(F)F)c1)CC(=O)N2 (centres unmarked) [compound 2o, 2-Amino-5-(3-trifluoromethoxyphenyl)-5,8-dihydro-3H,6H-pyrido[2,3-d]pyrimidine-4,7-dione]	strongly suppressed	suppressed the onset of cold allodynia by oxaliplatin significantly	did not affect the first phase reaction	suppressed the second phase reaction significantly depending on the concentration	suppressed the onset of mechanical allodynia significantly	suppressed cold allodynia by oxaliplatin significantly over 4 to 5 hours	did not exhibit a significant suppressing effect	suppressing effect equivalent to PA-8 and the compound 2j	suppressed CREB phosphorylation by PACAP (1 nM)	significantly stronger effect of suppressing CREB phosphorylation	suppressed the onset of mechanical allodynia still more strongly	–	–	suppression of the onset of cold allodynia by oxaliplatin ([2]; three administrations (FIG. 7B)): suppressed the onset almost completely; time of onset of effect on cold allodynia [5]: effective from an earlier period of time (the first hour after administration); mechanical threshold level during administration ([8]; 30 mg/kg i.p. once a day): maintained the mechanical threshold at a level equivalent to an uninjured side; mechanical threshold after discontinuation of administration ([8]; 30 mg/kg i.p., discontinued on the seventh day, versus VEH group): maintained the mechanical threshold highly significantly for at least 7 days thereafter
O=C(NCCc1c[nH]cn1)C1CC(=O)N(c2n[nH]c3ccccc23)C1 (centres unmarked) [PA-9, reference compound]	–	–	–	–	anti-mechanical allodynia effect equivalent to PA-8 and the compound 2j	–	–	–	suppressed CREB phosphorylation by PACAP (1 nM) depending on the concentration	–	–	strongly suppressed	maintained the mechanical threshold highly significantly	analgesic effect [9]: have analgesic effect; PAC1 receptor antagonistic action [10]: have PAC1 receptor antagonistic action
O=C(NCCc1c[nH]cn1)C1CC(=O)N(c2n[nH]c3c(Cl)cccc23)C1 (centres unmarked) [compound 3d, N-[2-(1H-imidazol-4-yl)ethyl]-1-(7-chloro-1H-indazol-3-yl)-5-oxo-3-pyrrolidinecarboxamide]	–	–	–	–	anti-mechanical allodynia effect equivalent to PA-8 and the compound 2j	–	–	–	suppressed CREB phosphorylation by PACAP (1 nM) depending on the concentration	significantly stronger effect of suppressing CREB phosphorylation	–	strongly suppressed	maintained the mechanical threshold highly significantly	–
CCOc1cccc(C2CC(=O)Nc3nc(N)[nH]c(=O)c32)c1 (centres unmarked) [compound 2j, 2-Amino-5-(3-ethoxyphenyl)-5,8-dihydro-3H,6H-pyrido[2,3-d]pyrimidine-4,7-dione]	strongly suppressed	suppressed the onset of cold allodynia by oxaliplatin significantly	did not affect the first phase reaction	did not affect the second phase reaction	suppressed the onset of mechanical allodynia significantly	suppressed cold allodynia by oxaliplatin significantly over 4 to 5 hours	suppressed the PACAP response significantly	suppressed the PACAP response significantly	suppressed depending on the concentration	–	did not suppress the onset of mechanical allodynia	–	–	maximum effect compared with compound 2o ([4]; 100 pmol i.t., 3 hours after the administration): significantly inferior as compared with the compound 2o; effect on PACAP response compared with PA-8 ([6]; 10 pmol i.t., versus PA-8 10 pmol): significantly stronger than that of PA-8 (10 pmol)
